In experiment [1] the test system is NB-4. Kind of experiment: Cell cycle arrest in human NB4 cells assessed as accumulation of cells at G2/M phase at 2 uM incubated for 12 hrs by DAPI staining based flow cytometric analysis (reference value: 21 %). The class given is functional.
For experiment [2], the system named is NB-4. Kind of experiment: Cell cycle arrest in human NB4 cells transfected with pLVX-shPML-RARalpha plasmid assessed as accumulation of cells at G2/M phase at 2 uM incubated for 12 hrs by DAPI staining based flow cytometric analysis (reference value: 22 %). The experiment is classed as functional.
The nature of experiment [3]: Cell cycle arrest in human ATRA-resistant NB4-LR2 cells assessed as accumulation of cells at S phase at 2 uM incubated for 3 hrs by DAPI staining based flow cytometric analysis (reference value: 19 %). The experiment is classed as functional.
A short description of experiment [4]: Cell cycle arrest in human ATRA-resistant NB4-LR2 cells assessed as accumulation of cells at G0/G1 phase at 0.5 uM incubated for 24 hrs by DAPI staining based flow cytometric analysis (reference value: 42 %). The class given is functional.
The nature of experiment [5]: Cell cycle arrest in human ATRA-resistant NB4-LR2 cells assessed as accumulation of cells at G2/M phase at 2 uM incubated for 6 hrs by DAPI staining based flow cytometric analysis (reference value: 15 %). The class given is functional.
For experiment [6], the system named is NB-4. Kind of experiment: Cell cycle arrest in human NB4 cells transfected with pLVX-shRXRalpha plasmid assessed as accumulation of cells at S phase at 1 uM incubated for 12 hrs by DAPI staining based flow cytometric analysis (reference value: 19 %). The experiment is classed as functional.
Experiment [7] relates to NB-4. Kind of experiment: Cell cycle arrest in human NB4 cells assessed as accumulation of cells at sub-G1 phase at 2 uM incubated for 3 hrs by DAPI staining based flow cytometric analysis (reference value: 3 %). The experiment is classed as functional.
Experiment [8] has as its system NB-4. The experiment can be described thus: Cell cycle arrest in human NB4 cells transfected with pLVX-shRXRalpha plasmid assessed as accumulation of cells at sub-G1 phase at 2 uM incubated for 12 hrs by DAPI staining based flow cytometric analysis (reference value: 10 %). The experiment is classed as functional.
For experiment [9], the system named is NB-4. The experiment can be described thus: Cell cycle arrest in human NB4 cells transfected with pLVX-shRNA2-negative control assessed as accumulation of cells at G0/G1 phase at 1 uM incubated for 12 hrs by DAPI staining based flow cytometric analysis (reference value: 46 %). The class given is functional.
Experiment [10] addresses T1, Retinoic acid receptor alpha (Homo sapiens, UniProt P10276).
T1 sequence (P10276 whole entry): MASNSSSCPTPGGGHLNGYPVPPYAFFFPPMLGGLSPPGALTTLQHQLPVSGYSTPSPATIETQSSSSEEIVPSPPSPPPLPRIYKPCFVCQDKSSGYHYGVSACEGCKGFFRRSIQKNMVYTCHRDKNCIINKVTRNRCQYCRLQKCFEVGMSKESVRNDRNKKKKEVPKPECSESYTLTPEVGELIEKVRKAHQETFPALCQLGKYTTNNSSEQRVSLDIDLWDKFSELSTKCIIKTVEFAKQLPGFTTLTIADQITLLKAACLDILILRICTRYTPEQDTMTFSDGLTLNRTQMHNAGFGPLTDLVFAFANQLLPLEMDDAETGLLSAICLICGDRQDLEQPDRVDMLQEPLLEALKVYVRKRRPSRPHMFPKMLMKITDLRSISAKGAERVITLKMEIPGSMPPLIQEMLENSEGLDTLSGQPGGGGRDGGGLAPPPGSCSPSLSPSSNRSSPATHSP
The experiment can be described thus: Binding affinity to N-terminal His-tagged human RARalpha LBD extracted from Escherichia coli BL21 (DE3) cells assessed as dissociation constant by ITC analysis.

Experiment [11] has as its system NB-4. Kind of experiment: Cell cycle arrest in human NB4 cells assessed as accumulation of cells at G2/M phase at 1 uM incubated for 12 hrs by DAPI staining based flow cytometric analysis (reference value: 26 %). The class given is functional.
Experiment [12] concerns NB-4. Kind of experiment: Cell cycle arrest in human NB4 cells transfected with pLVX-shRNA2-negative control assessed as accumulation of cells at G0/G1 phase at 2 uM incubated for 12 hrs by DAPI staining based flow cytometric analysis (reference value: 46 %). The experiment is classed as functional.
The nature of experiment [13]: Cell cycle arrest in human ATRA-resistant NB4-LR2 cells assessed as accumulation of cells at S phase at 2 uM incubated for 24 hrs by DAPI staining based flow cytometric analysis (reference value: 21 %). The experiment is classed as functional.
A short description of experiment [14]: Cell cycle arrest in human ATRA-resistant NB4-LR2 cells assessed as accumulation of cells at G0/G1 phase at 1 uM incubated for 24 hrs by DAPI staining based flow cytometric analysis (reference value: 42 %). The experiment is classed as functional.
Experiment [15] has as its system NB-4. The experiment can be described thus: Cell cycle arrest in human NB4 cells assessed as accumulation of cells at sub-G1 phase at 1 uM incubated for 24 hrs by DAPI staining based flow cytometric analysis (reference value: 3 %). The experiment is classed as functional.

For `Cc1cc2c(cc1C(=O)/C(Br)=C/c1ccc(C(=O)O)cc1)C(C)(C)CCC2(C)C`, the Activity in [1] stood at 62%; in experiment [2], 20%; in experiment [3] it was 6%; in [4], 37%; in experiment [5], 26%; in experiment [6] it was 7%. Also, the Activity is given as 3% in experiment [7]; 12% in experiment [8]; 30% in experiment [9]; 61% in experiment [11]; 30% in experiment [12]; 22% in [13]. Moreover, the Activity in [14] is 32%; in experiment [15] it was 8%. Besides, in experiment [10], the Kd worked out at 1080 nM.

The values above are taken from ChEMBL document CHEMBL6134780, “Halogenated retinoid derivatives as dual RARα and RXRα modulators for treating acute promyelocytic leukemia cells” (Eur J Med Chem, 2024).
